Here are results for 10 compounds from patent US20120245029A1, “NOVEL PHOSPH(ON)ATE- AND SULF(ON)ATE-BASED PHOSPHATE MODIFIED NUCLEOSIDES USEFUL AS SUBSTRATES FOR POLYMERASES AND AS ANTIVIRAL AGENTS” (priority 2009, published 2012).

Each structure is given as a SMILES string.

The target in experiment [1] is T1, HIV-1 RT (Human immunodeficiency virus type 1 group M subtype B, UniProt P04585).
T1 construct: HIV-1 Reverse Transcriptase serves, in the HIV-1 viral replication process, as catalyst; purchased Ambion
In words: Gel-based single nucleotide incorporation assay by HIV-1 RT (primer-template P1T1). It is filed as biochemical. The settings on record: for conversion within 60 minutes: P1T1; for % of P + 1: P1T1 125 nM. The method, then: (§1) DNA polymerase reactions: end-labeled primer was annealed to its template by combining primer and template in a molar ratio of 1:2 and heating the mixture to 70° C. for 10 minutes followed by slow cooling to room temperature over a period of 1.5 hour. For the incorporation of a modified nucleoside, a series of 20 μL-batch reactions was performed with the enzyme HIV-1 RT (Ambion, 10 U/μL stock soln, specific activity 8.095 Wring, concentration 1.2 mg/mL). The final mixture contained 125 nM primer template complex, RT buffer (250 mM Tris.HCl, 250 mM KCl, 50 mM MgCl2, 2.5 mM spermidine, 50 mM dithiothreitol (DTT); pH 8.3), 0.025 U/μL HIV-1 RT, and different concentrations of the phosphoramidate to be tested (1 mM, 500 μM, 200 μM and 100 μM).
(§2) Electrophoresis: all polymerase reaction aliquots (2.5 μL) were quenched by the addition of 10 μL of loading buffer (90% formamide, 0.05% bromophenol blue, 0.05% xylene cyanol and 50 mM ethylenediaminetetraacetic acid (EDTA)). Samples were heated at 85° C. for 5 minutes prior to analysis by electrophoresis for 2.5 hours at 2000 V on a 30 cm×40 cm×0.4 mm 20% (19:1 mono:bis) denaturing gel in the presence of a 100 mM Tris-borate, 2.5 mM EDTA buffer; pH 8.3. Products were visualized by phosphorimaging. The amount of radioactivity in the bands corresponding to the products of enzymatic reactions was determined by using the imaging device Cyclone@ and the Optiquant image analysis software (Perkin Elmer).
Here, the ability of phosphoramidate analogues as substrate for HIV-1 RT was investigated by the gel-based single nucleotide incorporation assay. The natural nucleoside triphosphate (dATP) was used as reference.
The ability of HIV-1 reverse transcriptase to incorporate phosphoramidate analogues 2-6 was analysed by gel-based single-nucleotide-incorporation assays using the primer-template complex P1T1.

In experiment [2] the target is T1, HIV-1 RT. In words: Elongation of primer P1 directed by template T2 by HIV-1 RT. It is filed as biochemical. As to conditions: for % product P + 1 / % product P + 2 / % product P + 3 / % product P + 4 / % product P + 5 / % product P + 6 / % product P + 7: 120 minutes reaction, P1T2, percentage of the total amount of radio-nucleotides. The method, then:
as §1, §2
In order to further investigate the potentiality of the leaving groups of this invention, L-Cys-dAMP (2) and 3-phosphono-L-Ala-dAMP (3) were tested in the template dependent incorporation of more than one phosphoramidate nucleotides by HIV-1 RT (FIG. 4). For this purpose, Primer P1 and template T2 containing an overhang of seven thymidine residues and four nucleobases (GGAC) at the 3′-end were used.
In order to investigate the strand elongation capacity of compound 2, a template dependent incorporation of more than one nucleotide experiment was carried out. In this experiment HIV-1 RT and P1T2 duplex, where seven thymidine bases overhang of the template is flanked by four non-thymidine units at the 3′-end were used. A range of concentration of the building block was incubated with the primer-template complex and 0.025 U/μL of enzyme at the appropriate temperature, samples were quenched after 15, 30, 60, 90 and 120 minutes respectively and analyzed by 20% polyacrylamide gel electrophoresis.

Experiment [3] addresses T1, HIV-1 RT. Kind of experiment: Gel-based single nucleotide incorporation assay by HIV-1 RT (primer-template P1T1). The settings on record: among phosphoramidate analogues 1-5. In kind it is biochemical.
For experiment [4], the target named is T1, HIV-1 RT. The settings on record: previous experiments / already known; cited from earlier work.
The target in experiment [5] is T1, HIV-1 RT. In words: Steady-state kinetics of single nucleotide incorporation by HIV-1 RT. As to conditions: P1T1 125 nM, HIV-1 RT 0.025 U/μL, 37° C. It is filed as biochemical. Here is the method: The efficiency of incorporation by HIV-1 RT of 3-phosphono-L-Ala-dAMP (3) was investigated by determination of the kinetic parameters Km and Vmax. The steady-state kinetics assay was carried out as follows. The reaction was started by adding HIV-1 RT to P1-T1 complex, buffer, 3-phosphono-L-Ala-dAMP (3) and dATP. The final mixture (20 μL) contained 0.025 U/μL HIV-1 RT, buffer, 125 nM primer-template complex, and various concentrations 3-phosphono-L-Ala-dAMP and dATP. The range of concentrations for phosphoamidates was optimized according to a Km value for the incorporation of an individual nucleotide. In the case of HIV-1 RT, reaction mixtures containing the enzyme in concentration (0.025 U/μL) to attain 5-25% conversion and appropriate substrate concentration (0.5-100 μM used for 3-phosphono-L-Ala-dAMP (3) and 0.1-10 μM used for dATP) were incubated at 37° C. and run for 8-10 different time intervals (2-20 minutes). The incorporation velocities were calculated based on the percentage of single-nucleotide extension product (P+1 band). The kinetic parameters (Vmax and Km) were determined by plotting V (nM/min) versus substrate concentration (μM) and fitting the data point to a nonlinear Michaelis-Menten regression using GraphPad Prism software.

For `Nc1ncnc2c1ncn2[C@H]1CC(O)[C@@H](COP(=O)(O)N(CC(=O)O)CP(=O)(O)O)O1` (stereo partly shown) [Compound 8], in experiment [1] (500 μM substrate, 60 min), the “conversion within 60 minutes” value turned out to be 70.8%. In experiment [2], the “% product P + 1” value was 11.8%, the “% product P + 2” value was determined as 37.7%, the “% product P + 3” value was found to be 7.9% and the “% product P + 4” value is given as “traces”. Moreover, in experiment [2], the “% product P + 5” value worked out at 1.2%, the “% product P + 6” value came to 0.6% and the “% product P + 7” value came to 1.2%.
On to `Nc1ncnc2c1ncn2[C@H]1C[C@H](O)[C@@H](COP(=O)(O)N[C@@H](COS(=O)(=O)O)C(=O)O)O1` [Compound 4, 2′-Deoxyadenosine-5′-(O-sulfonato-L-serine) phosphoramidate], for which, in experiment [3], the “substrate quality for HIV-1 RT (in words)” value is recorded as “much less good substrates”. Also, the “% of P + 1” value in experiment [1] (1 mM substrate, 60 min) worked out at 8.1%.
Consider `Nc1ncnc2c1ncn2[C@H]1C[C@H](O)[C@@H](COP(=O)(O)N[C@@H](COP(=O)(O)O)C(=O)O)O1` [Compound 5, 2′-Deoxyadenosine-5′-(O-phospho-L-serine) phosphoramidate], for which the “substrate quality for HIV-1 RT (in words)” value in experiment [3] is on record as “much less good substrates”. Moreover, the “% of P + 1” value in experiment [1] (100 μM substrate, 10 min) stood at 3.1%; in experiment [1] (100 μM substrate, 20 min), 3.2%; in experiment [1] (100 μM substrate, 30 min), 4.6%; in experiment [1] (100 μM substrate, 60 min), 5.1%; in experiment [1] (100 μM substrate, 120 min) it was 5.2%; in experiment [1] (200 μM substrate, 10 min) it was 3.7%. In addition, the “% of P + 1” value in experiment [1] (200 μM substrate, 20 min) stood at 4.6%; in experiment [1] (200 μM substrate, 30 min), 5.8%; in experiment [1] (200 μM substrate, 60 min), 6.6%; in experiment [1] (200 μM substrate, 120 min), 9.5%; in experiment [1] (1 mM substrate, 60 min) it was 19.4%.
Regarding `Nc1ncnc2c1ncn2[C@H]1C[C@H](O)[C@@H](COP(=O)(O)N[C@@H](CO)C(=O)O)O1` [Ser-dAMP], in experiment [4], the “substrate / leaving group quality for the polymerase (in words), already known” value is “poor substrate”.
Turning to `Nc1ncnc2c1ncn2[C@H]1C[C@H](O)[C@@H](COP(=O)(O)NCCS(=O)(=O)O)O1` [Compound 1, 2′-deoxyadenosine-5′-taurine phosphoramidate], the “% of P + 1” value in experiment [1] (100 μM substrate, 10 min) was 3.5%; in experiment [1] (100 μM substrate, 20 min), 4.0%; in experiment [1] (100 μM substrate, 30 min), 4.8%; in experiment [1] (100 μM substrate, 60 min) it was 6.3%; in experiment [1] (100 μM substrate, 120 min), 7.2%; in experiment [1] (200 μM substrate, 10 min) it was 3.1%. For the same compound, the “% of P + 1” value in experiment [1] (200 μM substrate, 20 min) was 5.7%; in experiment [1] (200 μM substrate, 30 min), 4.6%; in experiment [1] (200 μM substrate, 60 min), 5.1%; in experiment [1] (200 μM substrate, 120 min), 4.3%; in experiment [1] (500 μM substrate, 10 min) it was 12.8%; in experiment [1] (500 μM substrate, 20 min), 16.6%. The “% of P + 1” value in experiment [1] (500 μM substrate, 30 min) came out at 19.8%; in experiment [1] (500 μM substrate, 60 min), 20.1%; in experiment [1] (500 μM substrate, 120 min) it was 20.2%; in experiment [1] (1 mM substrate, 10 min), 26.6%; in experiment [1] (1 mM substrate, 20 min), 41.0%; in experiment [1] (1 mM substrate, 30 min) it was 55.1%. The “% of P + 1” value was 54.7% in experiment [1] (1 mM substrate, 60 min) and 55.7% in experiment [1] (1 mM substrate, 120 min).
`Nc1ncnc2c1ncn2C1CC(O)C(COP(=O)(O)NC(CC(=O)O)C(=O)O)O1` [L-aspartic acid phosphoramidate of dAMP]: the “substrate / leaving group quality for the polymerase (in words), already known” value in experiment [4] is recorded as “acceptable leaving group”.
For `Nc1ncnc2c1ncn2[C@H]1C[C@H](O)[C@@H](COP(=O)(O)OP(=O)(O)OP(=O)(O)O)O1` [dATP, reference compound], in experiment [5], the Km turned out to be 0.93 ± 0.26 µM and the Vmax is listed as 32.27 ± 2.32 nM/min.
`Nc1ncnc2c1ncn2[C@H]1C[C@H](O)[C@@H](COP(=O)(O)N(CP(=O)(O)O)CP(=O)(O)O)O1` [Compound 6, 2′-deoxyadenosine-5′-[iminobis(methanephosphonate)] phosphoramidate]: the “conversion within 60 minutes” value in experiment [1] (500 μM substrate, 60 min) worked out at 90%. Moreover, in experiment [2], the “% product P + 1” value was found to be 8.6%, the “% product P + 2” value is 53.1%, the “% product P + 3” value is on record as 10.8% and the “% product P + 4” value is “traces”. In addition, in experiment [2], the “% product P + 5” value was 0%, the “% product P + 6” value is given as 0% and the “% product P + 7” value amounted to 0%.
As for `Nc1ncnc2c1ncn2[C@H]1C[C@H](O)[C@@H](COP(=O)(O)N(CCP(=O)(O)O)CCP(=O)(O)O)O1` [Compound 7, 2′-deoxyadenosine-5′-[iminobis(ethyl phosphonate)] phosphoramidate], the “conversion within 60 minutes” value in experiment [1] (500 μM substrate, 60 min) is given as 83.2%. Also, in experiment [2], the “% product P + 1” value was found to be 15.2%, the “% product P + 2” value turned out to be 35.4%, the “% product P + 3” value came to 4.9% and the “% product P + 4” value is given as “traces”. Moreover, in experiment [2], the “% product P + 5” value turned out to be 0%, the “% product P + 6” value was 0% and the “% product P + 7” value amounted to 0%.
Consider `Nc1ncnc2c1ncn2[C@H]1C[C@H](O)[C@@H](COP(=O)(O)N[C@@H](CS(=O)(=O)O)C(=O)O)O1` [Compound 2, 2′-Deoxyadenosine-5′-(L-cysteic acid) phosphoramidate], for which the “% of P + 1” value in experiment [1] (100 μM substrate, 10 min) came to 7.7%; in experiment [1] (100 μM substrate, 20 min) it was 7.9%; in experiment [1] (100 μM substrate, 30 min), 8.5%; in experiment [1] (100 μM substrate, 60 min) it was 9.3%; in experiment [1] (100 μM substrate, 120 min), 9.1%; in experiment [1] (200 μM substrate, 10 min), 13.7%. The “% of P + 1” value is recorded as 15.6% in experiment [1] (200 μM substrate, 20 min); 16.0% in experiment [1] (200 μM substrate, 30 min); 15.8% in experiment [1] (200 μM substrate, 60 min); 18.1% in experiment [1] (200 μM substrate, 120 min); 27.7% in experiment [1] (500 μM substrate, 10 min); 29.6% in experiment [1] (500 μM substrate, 20 min). Further, the “% of P + 1” value is on record as 38.3% in experiment [1] (500 μM substrate, 30 min); 38.4% in experiment [1] (500 μM substrate, 60 min); 41.5% in experiment [1] (500 μM substrate, 120 min); 63.1% in experiment [1] (1 mM substrate, 60 min). Further, the “primer extension products (in words)” value in experiment [2] (P1T2, gel electrophoresis) was “only extended a primer with one and two adenine nucleobases”.

Usually Km stands for the substrate concentration at which the rate is half of its maximum. One may read the Vmax as the top rate of the reaction or transport when substrate is in excess.
